Source: patent US4421912A, “Cephalosporin derivatives” (Takeda Chemical Industries, Ltd., priority 1973, dated 1983)
≈ marks a conversion by molar mass, not a printed value. Where two headings read alike, the source gives them in different places.

What was measured:
P. morganii Eb53 = experiment: Antibacterial spectra, agar dilution method; assay type: cell-based; conditions: for MIC: Morganella morganii
Description: (§1) (mcg/ml, agar dilution method)
(§2) (mcg./ml., agar dilution method)

P. vulgaris IFO 3988 = experiment: Antibacterial spectra, agar dilution method; assay type: cell-based; conditions: Proteus vulgaris, IFO3988; P. vulgaris IFO 3988; agar dilution method; Table 11; read-out: Antibacterial spectra
Description: (§3) |(mcg./ml., agar dilution method)

E. coli T-7 = experiment: Antibacterial spectra, agar dilution method; assay type: cell-based; conditions: Escherichia coli
Description: as §3

P. vulgaris Eb-57 = experiment: Antibacterial spectra, agar dilution method; assay type: cell-based; conditions: Proteus vulgaris
Description: |(mcg/ml., agar dilution method)

P. vulgaris Eb-58 = experiment: Antibacterial spectra, agar dilution method; assay type: cell-based; conditions: Proteus vulgaris, EB58, tables in Examples 13 and 16
Description: (§4) (mcg/ml., agar dilution method)
as §1

K. pneumoniae DT = experiment: Antibacterial spectra, agar dilution method; assay type: cell-based; conditions: Klebsiella pneumoniae
E. coli 0-111 = experiment: Antibacterial spectra, agar dilution method; assay type: cell-based
Description: as §4, §4, §1, §2

S. aureus 209P = experiment: Antibacterial spectra, agar dilution method; assay type: cell-based; conditions: Staphylococcus aureus
Description: as §4, §4, §1, §2

E. coli NIHJ JC-2 = experiment: Antibacterial spectra, agar dilution method; assay type: cell-based; conditions: Escherichia coli
Description: as §4, §4, §1, §2

S. aureus 1840 = experiment: Antibacterial spectra, agar dilution method; assay type: cell-based
Description: as §4, §4, §1, §2

Escherichia coli 0111 = experiment: Protective Effect on Infected Mice; assay type: in vivo; conditions: Escherichia coli, 0111, sc, 168 h, male ICR/SLC mice, i.p. E. coli 0111, single subcutaneous dose immediately after challenge, 7 days
Description: Protective Effect (ED50 * , mg/kg) on Infected Mice
*Test animals: male mice (ICR/SLC) 5 mice per group per single dose
Infection: intraperitoneally with Escherichia coli 0111
Administration: a single subcutaneous dose immediately after challenge
Observation period: 7 days
*Test animals: male mice (ICR/SLC) 5 mice per group single dose

[1] = P. morganii Eb53, agar dilution method, Table 11, read-out: Antibacterial spectra
[2] = P. morganii Eb53, agar dilution method, table in Example 16
[3] = T7, E. coli T-7, agar dilution method, Table 11, read-out: Antibacterial spectra
[4] = EB57, P. vulgaris Eb-57, agar dilution method, table in Example 10, read-out: Antibacterial spectra
[5] = Escherichia coli, 0111, E. coli 0-111, Table 11
[6] = Escherichia coli, 0111, E. coli 0-111, tables in the Examples
[7] = 209P, read-out: Antibacterial spectra, S. aureus 209P, Table 11
[8] = S. aureus 209P, tables in the Examples, read-out: Antibacterial spectra
[9] = NIHJJC2, read-out: Antibacterial spectra, E. coli NIHJ JC-2, Table 11
[10] = NIHJJC2, read-out: Antibacterial spectra, E. coli NIHJ JC-2, tables in the Examples
[11] = Staphylococcus aureus, 1840, read-out: Antibacterial spectra, S. aureus 1840, Table 11
[12] = Staphylococcus aureus, 1840, read-out: Antibacterial spectra, S. aureus 1840, tables in the Examples
[13] = Table 12, read-out: Protective Effect (ED50) on Infected Mice
[14] = 209P, read-out: Antibacterial spectra, S. aureus 209P, tables in the Examples

Row | Structure (SMILES) | MIC (P. morganii Eb53; [1]) | Antibacterial spectra (P. morganii Eb53; [2]) | MIC (P. vulgaris IFO 3988) | MIC (E. coli T-7; [3]) | MIC (P. vulgaris Eb-57; [4]) | MIC (P. vulgaris Eb-58) | MIC (K. pneumoniae DT; Table 11) | MIC (K. pneumoniae DT; tables in the Examples) | MIC (E. coli 0-111; [5]) | MIC (E. coli 0-111; [6]) | MIC (S. aureus 209P; [7]) | MIC (S. aureus 209P; [8]) | MIC (E. coli NIHJ JC-2; [9]) | MIC (E. coli NIHJ JC-2; [10]) | MIC (S. aureus 1840; [11]) | MIC (S. aureus 1840; [12]) | ED50 (Escherichia coli 0111; [13]) | ED50 (Escherichia coli 0111; Table 14, read-out: ED50) | MIC (S. aureus 209P; [14]) | also measured
1 | O=C(Cc1cccs1)N[C@@H]1C(=O)N2C(C(=O)[O-])=C(C[n+]3ccccc3)CS[C@H]12 [Cephaloridine, reference compound] | > 100 µg/mL | > 100 µg/mL | 6.25 µg/mL (≈ 15 µM) | > 100 µg/mL | > 100 µg/mL | 12.5 µg/mL (≈ 30.1 µM) | 1.56 µg/mL (≈ 3.75 µM) | 3.12 µg/mL (≈ 7.52 µM) | 1.56 µg/mL (≈ 3.75 µM) | 3.12 µg/mL (≈ 7.52 µM) | ≤ 0.2 µg/mL | 0.05 µg/mL (≈ 0.12 µM) | 3.13 µg/mL (≈ 7.53 µM) | 6.25 µg/mL (≈ 15 µM) | 0.39 µg/mL (≈ 0.939 µM) | 0.39 µg/mL (≈ 0.939 µM) | 2.81 mg/kg | 3.57 mg/kg | – | ED50 (Escherichia coli 0111; Table 13, read-out: ED50): 1.94 mg/kg
2 | Cc1nnc(SCC2=C(C(=O)O)N3C(=O)[C@@H](NC(=O)Cn4cnnn4)[C@H]3SC2)s1 [Cephazolin, reference compound] | 100 µg/mL (≈ 220 µM) | 100 µg/mL | 6.25 µg/mL (≈ 13.8 µM) | 50 µg/mL (≈ 110 µM) | 50 µg/mL (≈ 110 µM) | 6.25 µg/mL (≈ 13.8 µM) | 1.56 µg/mL (≈ 3.43 µM) | 1.56 µg/mL (≈ 3.43 µM) | 0.78 µg/mL (≈ 1.72 µM) | 1.56 µg/mL (≈ 3.43 µM) | ≤ 0.2 µg/mL | 0.01 µg/mL (≈ 0.022 µM) | 1.56 µg/mL (≈ 3.43 µM) | 1.56 µg/mL (≈ 3.43 µM) | 0.78 µg/mL (≈ 1.72 µM) | 1.56 µg/mL (≈ 3.43 µM) | – | 3.1 mg/kg | 0.1 µg/mL (≈ 0.22 µM) | –
3 | NC(=O)Cc1nnc(SCC2=C(C(=O)[O-])N3C(=O)C(NC(=O)Cc4csc(N)n4)[C@H]3SC2)s1.[Na+] (some centres unmarked) [Compound 21, sodium 7-[2-(2-aminothiazol-4-yl)acetamido]-3-(2-carbamoylmethyl-1,3,4-thiadiazol-5-yl)thiomethyl-3-cephem-4-carboxylate] | – | – | ≤ 0.2 µg/mL | – | – | – | ≤ 0.2 µg/mL | – | ≤ 0.2 µg/mL | – | ≤ 0.2 µg/mL | – | 0.39 µg/mL | – | 1.56 µg/mL | – | < 0.625 mg/kg | – | – | MIC (P. morganii Eb53; EB53, read-out: Antibacterial spectra): 0.78 µg/mL; MIC (E. coli T-7; T7, read-out: Antibacterial spectra): 25 µg/mL
4 | CC(=O)OCC1=C(C(=O)O)N2C(=O)C(NC(=O)Cc3csc(N)n3)C2SC1 (centres unmarked) [Example 10, sodium 7-[2-(2-aminothiazol-4-yl)acetamido]-3-acetoxymethyl-3-cephem-4-carboxylat] | – | – | – | – | – | – | – | < 0.78 µg/mL | – | – | – | – | – | – | – | 1.56 µg/mL | – | – | < 0.78 µg/mL | MIC (P. vulgaris Eb-57; EB57, read-out: Antibacterial spectra): < 0.78 µg/mL; MIC (E. coli NIHJ JC-2; NIHJJC2, E. coli NIHJ JC-2, tables in the Examples, read-out: Antibacterial spectra): 1.56 µg/mL
5 | Nc1nc(CC(=O)NC2C(=O)N3C(C(=O)O)=C(CSc4nncs4)CSC23)cs1 (centres unmarked) [Example 13, sodium 7-[2-(2-aminothiazol-4-yl)-acetamido]-3-(1,3,4-thiadiazol-2-yl)thiomethyl-3-cephem-4-carboxylate] | – | – | – | – | – | < 0.78 µg/mL | – | < 0.78 µg/mL | – | < 0.78 µg/mL | – | – | – | – | – | < 0.78 µg/mL | – | 2.38 mg/kg | < 0.78 µg/mL | –
6 | Cn1nnnc1SCC1=C(C(=O)O)N2C(=O)C(NC(=O)Cc3csc(N)n3)C2SC1 (centres unmarked) [Example 16, sodium 7-[2-(2-aminothiazol-4-yl)acetamido]-3-(1-methyltetrazol-5-yl)thiomethyl-3-cephem-4-carboxylate] | – | – | – | – | – | 0.39 µg/mL | – | < 0.1 µg/mL | – | 0.2 µg/mL | – | – | – | 0.39 µg/mL | – | 0.78 µg/mL | – | 0.89 mg/kg | 0.39 µg/mL | MIC (P. morganii Eb53; P. morganii Eb53, agar dilution method, table in Example 16, read-out: Antibacterial spectra): 3.12 µg/mL
